Measured values reported in BindingDB's records for doi:10.1002/cbic.200600287 (Mcgill University, 2007).

Assays:
Assay in all cases: PTP Assay
[1] = target: T1, Dual specificity protein phosphatase 22 (Homo sapiens, UniProt Q9NRW4); conditions: pH 6; 25 °C
T1 sequence (Q9NRW4 whole entry): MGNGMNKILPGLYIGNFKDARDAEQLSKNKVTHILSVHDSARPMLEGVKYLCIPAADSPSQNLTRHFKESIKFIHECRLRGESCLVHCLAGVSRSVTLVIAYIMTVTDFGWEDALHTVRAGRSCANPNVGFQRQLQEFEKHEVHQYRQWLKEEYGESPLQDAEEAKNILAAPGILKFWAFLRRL
Method: (§1) PTP assay were conducted at 25 C in 96-well plates. Reaction rates were determined using a Variokan plate reader from Thermo Electron. For assay pH 7.0 absorbance was measured every 30s over 10 min and the reaction rates were calculated by linear regression. Because the p-nitrophenol product does not absorb at pH 6.0.

[2] = target: Receptor-type tyrosine-protein phosphatase F (Homo sapiens, UniProt P10586); conditions: pH 6; 25 °C
Method: as §1

[3] = target: T2, Tyrosine-protein phosphatase non-receptor type 1 (Homo sapiens, UniProt P18031); conditions: 25 °C
T2 sequence (P18031 whole entry): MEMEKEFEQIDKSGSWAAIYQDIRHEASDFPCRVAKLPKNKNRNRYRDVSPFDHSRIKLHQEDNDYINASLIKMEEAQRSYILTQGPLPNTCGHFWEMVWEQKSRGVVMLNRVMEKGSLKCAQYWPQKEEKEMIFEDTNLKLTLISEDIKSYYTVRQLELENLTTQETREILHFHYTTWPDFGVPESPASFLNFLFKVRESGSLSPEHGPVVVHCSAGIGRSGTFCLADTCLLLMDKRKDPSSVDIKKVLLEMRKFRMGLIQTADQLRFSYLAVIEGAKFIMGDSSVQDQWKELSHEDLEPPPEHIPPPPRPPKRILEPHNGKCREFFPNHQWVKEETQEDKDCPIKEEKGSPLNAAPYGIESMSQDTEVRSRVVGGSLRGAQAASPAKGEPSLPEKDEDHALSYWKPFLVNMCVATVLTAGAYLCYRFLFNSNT
Method: as §1

[4] = target: Tyrosine-protein phosphatase non-receptor type 13 (Homo sapiens, UniProt Q12923); conditions: pH 7; 25 °C
Method: as §1

[5] = target: T3, Tyrosine-protein phosphatase non-receptor type 2 (Homo sapiens, UniProt P17706); conditions: pH 7; 25 °C
T3 sequence (P17706 whole entry): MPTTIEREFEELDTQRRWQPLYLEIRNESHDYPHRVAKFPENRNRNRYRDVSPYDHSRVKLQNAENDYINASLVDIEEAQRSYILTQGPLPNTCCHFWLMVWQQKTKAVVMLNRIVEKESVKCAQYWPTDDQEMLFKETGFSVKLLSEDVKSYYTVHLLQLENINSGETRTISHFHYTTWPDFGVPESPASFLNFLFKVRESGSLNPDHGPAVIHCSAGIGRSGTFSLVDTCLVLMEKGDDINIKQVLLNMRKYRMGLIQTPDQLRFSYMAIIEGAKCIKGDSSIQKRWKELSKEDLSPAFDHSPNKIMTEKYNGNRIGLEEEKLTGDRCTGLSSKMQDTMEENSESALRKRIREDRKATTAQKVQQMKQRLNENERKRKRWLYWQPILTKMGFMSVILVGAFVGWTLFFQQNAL
Method: as §1

[6] = target: Tyrosine-protein phosphatase non-receptor type 6 (Homo sapiens, UniProt P29350); conditions: pH 7; 25 °C
Method: as §1

[7] = target: T4, Tyrosine-protein phosphatase non-receptor type 7 (Homo sapiens, UniProt P35236); conditions: pH 7; 25 °C
T4 sequence (P35236 whole entry): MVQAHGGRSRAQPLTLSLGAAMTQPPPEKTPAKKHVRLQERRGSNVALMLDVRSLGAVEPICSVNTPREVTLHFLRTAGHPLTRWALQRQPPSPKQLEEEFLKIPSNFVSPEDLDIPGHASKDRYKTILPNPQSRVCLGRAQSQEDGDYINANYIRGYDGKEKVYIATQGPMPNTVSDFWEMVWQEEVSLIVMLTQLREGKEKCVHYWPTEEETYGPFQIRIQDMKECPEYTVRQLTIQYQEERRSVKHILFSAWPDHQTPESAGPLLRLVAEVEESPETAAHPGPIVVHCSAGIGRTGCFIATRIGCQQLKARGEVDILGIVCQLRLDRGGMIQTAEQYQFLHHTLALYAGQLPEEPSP
Method: as §1

Receptor-type tyrosine-protein phosphatase F, sequence (P10586 whole entry): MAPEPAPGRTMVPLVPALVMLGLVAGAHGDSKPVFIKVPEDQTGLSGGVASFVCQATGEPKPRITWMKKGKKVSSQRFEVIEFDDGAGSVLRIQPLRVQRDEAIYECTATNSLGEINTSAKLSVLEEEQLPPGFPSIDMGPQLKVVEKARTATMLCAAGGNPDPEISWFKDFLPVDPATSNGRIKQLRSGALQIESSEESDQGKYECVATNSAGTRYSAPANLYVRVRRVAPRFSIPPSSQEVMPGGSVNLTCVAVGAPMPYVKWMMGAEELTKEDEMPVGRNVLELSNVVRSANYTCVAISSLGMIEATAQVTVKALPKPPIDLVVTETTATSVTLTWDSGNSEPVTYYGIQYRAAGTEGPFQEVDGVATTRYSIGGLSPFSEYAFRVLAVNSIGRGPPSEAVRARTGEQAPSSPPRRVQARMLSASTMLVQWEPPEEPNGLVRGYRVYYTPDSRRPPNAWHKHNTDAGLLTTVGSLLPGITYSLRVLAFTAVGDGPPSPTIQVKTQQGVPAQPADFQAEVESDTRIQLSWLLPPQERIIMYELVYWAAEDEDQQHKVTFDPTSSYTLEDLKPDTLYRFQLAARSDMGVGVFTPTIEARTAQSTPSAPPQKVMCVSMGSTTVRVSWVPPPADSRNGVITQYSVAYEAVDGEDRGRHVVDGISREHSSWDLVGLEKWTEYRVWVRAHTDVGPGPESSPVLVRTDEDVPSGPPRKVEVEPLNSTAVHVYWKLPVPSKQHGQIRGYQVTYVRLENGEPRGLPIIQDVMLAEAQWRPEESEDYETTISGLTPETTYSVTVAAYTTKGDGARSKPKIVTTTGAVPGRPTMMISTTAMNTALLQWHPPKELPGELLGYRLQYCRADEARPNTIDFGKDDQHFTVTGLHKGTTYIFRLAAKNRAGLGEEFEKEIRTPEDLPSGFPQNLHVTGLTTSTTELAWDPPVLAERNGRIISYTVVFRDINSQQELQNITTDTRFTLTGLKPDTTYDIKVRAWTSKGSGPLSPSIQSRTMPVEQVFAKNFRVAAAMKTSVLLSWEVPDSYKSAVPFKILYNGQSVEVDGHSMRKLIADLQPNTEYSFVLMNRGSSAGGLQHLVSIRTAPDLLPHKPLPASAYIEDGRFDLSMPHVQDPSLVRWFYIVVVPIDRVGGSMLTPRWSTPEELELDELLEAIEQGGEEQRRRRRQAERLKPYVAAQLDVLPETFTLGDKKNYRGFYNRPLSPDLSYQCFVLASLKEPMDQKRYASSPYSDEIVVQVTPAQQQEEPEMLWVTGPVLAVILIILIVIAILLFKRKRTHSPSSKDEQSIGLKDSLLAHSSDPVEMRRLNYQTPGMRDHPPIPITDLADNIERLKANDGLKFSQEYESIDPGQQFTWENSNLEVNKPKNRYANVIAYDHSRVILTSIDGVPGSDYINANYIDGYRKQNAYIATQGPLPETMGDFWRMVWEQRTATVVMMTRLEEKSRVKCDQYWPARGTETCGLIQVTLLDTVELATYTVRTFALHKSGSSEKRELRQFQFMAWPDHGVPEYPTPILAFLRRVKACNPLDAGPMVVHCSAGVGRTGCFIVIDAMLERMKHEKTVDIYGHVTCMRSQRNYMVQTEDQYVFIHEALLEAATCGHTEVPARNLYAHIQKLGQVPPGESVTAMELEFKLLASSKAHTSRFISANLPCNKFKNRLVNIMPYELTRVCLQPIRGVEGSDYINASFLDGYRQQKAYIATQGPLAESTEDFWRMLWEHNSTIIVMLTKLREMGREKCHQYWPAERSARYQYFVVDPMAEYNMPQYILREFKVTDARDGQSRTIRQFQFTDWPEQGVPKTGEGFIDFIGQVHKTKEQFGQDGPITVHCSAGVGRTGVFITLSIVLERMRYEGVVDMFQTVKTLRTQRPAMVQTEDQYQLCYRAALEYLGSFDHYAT
Tyrosine-protein phosphatase non-receptor type 13, sequence (Q12923 whole entry): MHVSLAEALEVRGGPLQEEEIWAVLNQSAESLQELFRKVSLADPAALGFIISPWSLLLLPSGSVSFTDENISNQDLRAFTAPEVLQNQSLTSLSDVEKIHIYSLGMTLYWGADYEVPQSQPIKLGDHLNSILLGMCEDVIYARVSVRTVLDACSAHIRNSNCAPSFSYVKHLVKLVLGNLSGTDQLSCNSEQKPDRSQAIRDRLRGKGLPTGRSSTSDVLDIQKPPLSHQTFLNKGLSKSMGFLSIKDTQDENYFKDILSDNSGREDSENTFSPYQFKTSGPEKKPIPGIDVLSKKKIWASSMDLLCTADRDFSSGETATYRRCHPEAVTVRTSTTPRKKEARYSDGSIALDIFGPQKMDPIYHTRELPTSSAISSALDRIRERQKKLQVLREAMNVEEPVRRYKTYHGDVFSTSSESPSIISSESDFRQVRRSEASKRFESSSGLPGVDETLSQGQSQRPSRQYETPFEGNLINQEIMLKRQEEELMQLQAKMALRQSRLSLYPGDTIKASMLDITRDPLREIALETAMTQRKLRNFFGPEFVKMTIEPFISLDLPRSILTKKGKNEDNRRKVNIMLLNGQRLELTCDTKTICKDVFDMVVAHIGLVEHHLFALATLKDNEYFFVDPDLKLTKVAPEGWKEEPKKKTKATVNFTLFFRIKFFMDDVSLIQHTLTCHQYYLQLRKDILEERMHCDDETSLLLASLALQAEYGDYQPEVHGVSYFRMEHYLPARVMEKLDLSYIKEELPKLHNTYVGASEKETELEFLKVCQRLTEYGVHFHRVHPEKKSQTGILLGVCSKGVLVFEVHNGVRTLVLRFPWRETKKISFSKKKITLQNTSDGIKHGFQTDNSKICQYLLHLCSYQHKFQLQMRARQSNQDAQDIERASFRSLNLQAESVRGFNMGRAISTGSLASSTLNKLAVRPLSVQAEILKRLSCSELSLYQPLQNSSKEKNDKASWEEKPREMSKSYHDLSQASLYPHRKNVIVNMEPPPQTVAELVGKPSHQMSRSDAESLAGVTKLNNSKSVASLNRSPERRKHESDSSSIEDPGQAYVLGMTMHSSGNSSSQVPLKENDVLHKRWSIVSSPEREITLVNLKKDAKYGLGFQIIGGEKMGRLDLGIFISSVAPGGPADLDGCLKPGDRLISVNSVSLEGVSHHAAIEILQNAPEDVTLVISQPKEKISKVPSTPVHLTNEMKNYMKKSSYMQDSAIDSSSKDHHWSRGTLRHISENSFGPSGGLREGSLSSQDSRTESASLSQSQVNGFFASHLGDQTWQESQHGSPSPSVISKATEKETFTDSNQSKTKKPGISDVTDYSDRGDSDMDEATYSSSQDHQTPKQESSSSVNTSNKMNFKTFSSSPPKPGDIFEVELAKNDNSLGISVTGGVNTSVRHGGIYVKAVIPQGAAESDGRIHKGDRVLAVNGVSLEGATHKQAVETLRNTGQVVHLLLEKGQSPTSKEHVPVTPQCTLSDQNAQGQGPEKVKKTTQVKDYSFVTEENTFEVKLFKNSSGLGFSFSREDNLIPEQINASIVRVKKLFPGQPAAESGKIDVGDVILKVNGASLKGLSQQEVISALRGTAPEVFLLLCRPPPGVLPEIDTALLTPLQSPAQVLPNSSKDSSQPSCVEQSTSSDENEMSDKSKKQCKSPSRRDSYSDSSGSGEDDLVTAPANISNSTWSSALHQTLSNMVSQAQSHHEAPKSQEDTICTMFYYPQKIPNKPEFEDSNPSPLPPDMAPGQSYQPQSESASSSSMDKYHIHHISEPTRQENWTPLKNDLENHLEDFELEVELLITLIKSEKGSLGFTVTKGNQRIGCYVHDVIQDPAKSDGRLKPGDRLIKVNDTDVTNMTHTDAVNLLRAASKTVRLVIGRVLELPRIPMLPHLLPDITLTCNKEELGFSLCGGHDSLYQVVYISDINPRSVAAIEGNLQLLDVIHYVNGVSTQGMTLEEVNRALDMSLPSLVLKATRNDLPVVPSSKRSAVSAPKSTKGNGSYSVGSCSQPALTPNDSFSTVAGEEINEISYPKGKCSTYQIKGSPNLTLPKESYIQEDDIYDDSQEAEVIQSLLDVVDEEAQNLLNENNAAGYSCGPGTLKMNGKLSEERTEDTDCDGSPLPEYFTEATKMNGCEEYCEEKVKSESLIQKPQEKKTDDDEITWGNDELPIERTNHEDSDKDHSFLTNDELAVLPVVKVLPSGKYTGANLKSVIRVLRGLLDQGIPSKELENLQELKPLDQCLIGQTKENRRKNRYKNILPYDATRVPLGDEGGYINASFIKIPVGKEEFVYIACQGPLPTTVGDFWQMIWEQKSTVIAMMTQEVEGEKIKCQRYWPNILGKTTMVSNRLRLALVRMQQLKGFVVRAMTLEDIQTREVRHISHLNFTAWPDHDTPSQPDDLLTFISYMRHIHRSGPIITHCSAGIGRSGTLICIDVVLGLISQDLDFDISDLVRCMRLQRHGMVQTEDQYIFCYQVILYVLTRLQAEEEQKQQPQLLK
Tyrosine-protein phosphatase non-receptor type 6, sequence (P29350 whole entry): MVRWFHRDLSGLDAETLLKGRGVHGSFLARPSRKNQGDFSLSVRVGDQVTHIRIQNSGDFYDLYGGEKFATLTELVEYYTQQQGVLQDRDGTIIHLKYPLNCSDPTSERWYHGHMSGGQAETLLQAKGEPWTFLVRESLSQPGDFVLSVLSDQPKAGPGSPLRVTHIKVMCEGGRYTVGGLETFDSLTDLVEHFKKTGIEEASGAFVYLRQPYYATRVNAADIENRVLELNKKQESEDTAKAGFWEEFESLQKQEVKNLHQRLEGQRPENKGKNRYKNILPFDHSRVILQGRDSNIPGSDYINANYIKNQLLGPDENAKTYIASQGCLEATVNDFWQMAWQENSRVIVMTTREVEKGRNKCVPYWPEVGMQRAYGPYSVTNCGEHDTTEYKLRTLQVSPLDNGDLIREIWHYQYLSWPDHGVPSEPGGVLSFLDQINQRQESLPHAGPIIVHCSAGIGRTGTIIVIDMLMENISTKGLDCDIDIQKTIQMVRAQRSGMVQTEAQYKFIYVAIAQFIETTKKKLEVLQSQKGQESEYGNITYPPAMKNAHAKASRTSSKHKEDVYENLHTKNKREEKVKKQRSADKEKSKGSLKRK

Compound	IC50 [3]	other results
COc1cc(/C=C2\SC(=S)N(c3cccc(Cl)c3)C2=O)cc([N+](=O)[O-])c1O [Thioxothiazolidinone derivative, 1]		IC50 [1]: > 50 µM; IC50 [2]: > 50 µM; IC50 ([3]; pH 6): 4.3 µM; IC50 ([3]; pH 7): 4.1 µM; IC50 [4]: 3.7 µM; IC50 [5]: 5.3 µM; IC50 [6]: 3.9 µM; IC50 [7]: 9.3 µM
COc1cc(/C=C2\SC(=S)N(c3ccccc3)C2=O)cc([N+](=O)[O-])c1O [Thioxothiazolidinone derivative, 3]	> 100 µM	
COc1cc(/C=C2\SC(=S)N(c3ccc(Cl)cc3)C2=O)cc([N+](=O)[O-])c1O [Thioxothiazolidinone derivative, 4]	5.4 µM	
COc1cc(/C=C2\SC(=S)N(c3cccc(F)c3)C2=O)cc([N+](=O)[O-])c1O [Thioxothiazolidinone derivative, 5]	12 µM	
COc1cccc(N2C(=O)/C(=C/c3cc(OC)c(O)c([N+](=O)[O-])c3)SC2=S)c1 [Thioxothiazolidinone derivative, 7]	16 µM	
COc1cc(/C=C2\SC(=S)N(c3ccc(C)cc3)C2=O)cc([N+](=O)[O-])c1O [Thioxothiazolidinone derivative, 9]	8.8 µM	
COc1cc(/C=C2\SC(=S)N(c3ccc([N+](=O)[O-])cc3)C2=O)cc([N+](=O)[O-])c1O [Thioxothiazolidinone derivative, 11]	7 µM	
COc1cc(/C=C2\SC(=S)N(c3cccc(Cl)c3)C2=O)ccc1O [Thioxothiazolidinone derivative, 14]	44 µM	
O=C1/C(=C/c2cc(O)c(O)c([N+](=O)[O-])c2)SC(=S)N1c1cccc(Cl)c1 [Thioxothiazolidinone derivative, 15]	18.1 µM	
COc1cc(/C=C2\SC(=S)N(c3cccc(Cl)c3)C2=O)cc(C(=O)O)c1O [Thioxothiazolidinone derivative, 17]	7.3 µM	
COc1cc(C=C2SC(=S)N(c3cccc(Cl)c3)C2=O)cc(CP(=O)(O)O)c1O [Thioxothiazolidinone derivative, 18]	> 100 µM	

The next lines start with results.

IC50 [3]	Compound	other results
29 µM	COc1cc(/C=C2\SC(=S)N(c3cccc(C)c3)C2=O)cc([N+](=O)[O-])c1O [Thioxothiazolidinone derivative, 6]	
29 µM	COc1cc(/C=C2\SC(=S)N(c3ccc(O)cc3)C2=O)cc([N+](=O)[O-])c1O [Thioxothiazolidinone derivative, 8]	
6.3 µM	COc1ccc(N2C(=O)/C(=C/c3cc(OC)c(O)c([N+](=O)[O-])c3)SC2=S)cc1 [Thioxothiazolidinone derivative, 10]	
7 µM	COc1cc(/C=C2\SC(=S)N(c3ccc(Cl)c(Cl)c3)C2=O)cc([N+](=O)[O-])c1O [Thioxothiazolidinone derivative, 12]	
68 µM	O=C1/C(=C/c2ccc(O)c([N+](=O)[O-])c2)SC(=S)N1c1cccc(Cl)c1 [Thioxothiazolidinone derivative, 13]	
